Drawing on ChEMBL document CHEMBL3091360, “Homosecoiridoid alkaloids with amino acid units from the flower buds of Lonicera japonica” (J Nat Prod, 2013), this text covers Activity, inhibition and IC50 for eight compounds.

Structures are written as SMILES. Calls of active or inactive are those of the source. The rule behind the calls is not given here.

One assay concerns BGC-823. Put plainly: Cytotoxicity against human BGC823 cells at 10 uM after 96 hrs by MTT assay. The format is functional, cell-based.
Another assay has as its system KETR3. Put plainly: Cytotoxicity against human Ketr3 cells at 10 uM after 96 hrs by MTT assay. The format is functional, cell-based. A general note: Tetrazolium dyes change colour on reduction, which living cells bring about.
The subject of the next assay is Bel-7402. Put plainly: Cytotoxicity against human Bel7402 cells at 10 uM after 96 hrs by MTT assay. The format is functional, cell-based.
Assay [1] deals with Human immunodeficiency virus 1. The assay is described as follows: Antiviral activity against HIV1 infected in human 293T cells expressing VSV-G assessed as inhibition of viral p24 production at 10 uM after 48 hrs by ELISA. The format is functional, organism-based. In general terms: ELISA stands for enzyme-linked immunosorbent assay.
Assay [2] can be described thus: Antiinflammatory activity in rat polymorphonuclear leukocytes assessed as inhibition of PAF-induced release of glucuronidase at 10 uM. The format is functional.
The next assay deals with HCT-8. Put plainly: Cytotoxicity against human HCT8 cells at 10 uM after 96 hrs by MTT assay. The format is functional, cell-based.
In another assay the test system is A549. Put plainly: Cytotoxicity against human A549 cells at 10 uM after 96 hrs by MTT assay. The format is functional, cell-based.
The next assay deals with MCF7. Put plainly: Cytotoxicity against human MCF7 cells at 10 uM after 96 hrs by MTT assay. The format is functional, cell-based.
For the next assay, the system named is Influenza A virus H3N2. The assay is described as follows: microbe, parasite or virus in culture. The following applies: Hanfang/359/95.

As a reminder, the inhibition is the percentage by which the read-out fell short of the control. A word on the IC50: it is the concentration needed to halve the response being measured. As to `C=C[C@H]1[C@H](O[C@@H]2O[C@H](CO)[C@@H](O)[C@H](O)[C@H]2O)OC=C(C(=O)[O-])[C@H]1/C=C/c1cc(C(=O)O)c[n+]([C@@H](CC(C)C)C(=O)O)c1`, the result in the assay with BGC-823, with KETR3, in the assay on Bel-7402, in the assay with HCT-8, with A549 and in the assay with MCF7 was inactive. Further, in assay [1], the inhibition result is “inactive”. Besides, in assay [2], the inhibition at 10 µM is less than 30%. The compound further yielded a half-inhibitory concentration (IC50) in the assay with Influenza A virus H3N2 of 10.3 µM.

In turn, `CCOC(=O)C1=C[C@@H](OC(CC)CC)[C@H](NC(C)=O)[C@@H](N)C1` [OSELTAMIVIR] displayed an IC50 with Influenza A virus H3N2 of 1.3 µM.

As for `C=C[C@H]1[C@H](O[C@@H]2O[C@H](CO)[C@@H](O)[C@H](O)[C@H]2O)OC=C(C(=O)O)[C@H]1/C=C/c1ccc[n+]([C@@H](C)C(=O)[O-])c1`, the outcome with BGC-823, with KETR3, with Bel-7402, in the assay with HCT-8, with A549 and with MCF7 was inactive. Further, the inhibition entry in [1] was “inactive”. In addition, in assay [2], the inhibition at 10 µM was found to be 63.2%. In the assay with Influenza A virus H3N2, half-maximal inhibition (IC50) required 11.6 µM.

`O=C(/C=C/c1ccc(O)c(O)c1)O[C@@H]1C[C@](O)(C(=O)O)C[C@@H](OC(=O)/C=C/c2ccc(O)c(O)c2)[C@H]1O`: the outcome in the assay with BGC-823, in the assay on KETR3, with Bel-7402, in the assay with HCT-8, in the assay on A549 and in the assay on MCF7 was inactive. Besides, the inhibition entry in [1] was “inactive”. In addition, the inhibition at 10 µM in assay [2] is less than 30%. The IC50 in the assay with Influenza A virus H3N2 was determined as 4.9 µM.

For the compound `O=C(/C=C/c1ccc(O)c(O)c1)O[C@@H]1[C@H](O)C[C@@](O)(C(=O)O)C[C@H]1OC(=O)/C=C/c1ccc(O)c(O)c1`, the result with BGC-823, with KETR3, in the assay on Bel-7402, with HCT-8, with A549 and in the assay on MCF7 was inactive. The inhibition entry in [1] was “inactive”. Moreover, the inhibition at 10 µM in [2] was less than 30%. Besides, in the assay with Influenza A virus H3N2, the IC50 turned out to be 10.2 µM.

`O=C(OCc1ccccc1)c1c(O)cccc1O[C@@H]1O[C@H](CO)[C@@H](O)[C@H](O)[C@H]1O`: the result in the assay with BGC-823, in the assay on KETR3, in the assay on Bel-7402, with HCT-8, with A549 and with MCF7 was inactive. The inhibition result in assay [1] is “inactive”. Moreover, the inhibition at 10 µM in [2] was less than 30%.

Take `O=C(/C=C/c1ccc(O)c(O)c1)O[C@@H]1C[C@](O)(C(=O)O)C[C@@H](O)[C@H]1O` [CHLOROGENIC ACID]: the result in the assay on BGC-823, in the assay on KETR3, in the assay with Bel-7402, in the assay on HCT-8, in the assay on A549 and in the assay with MCF7 was inactive. Besides, the inhibition entry in assay [1] is “inactive”. For the same compound, the inhibition at 10 µM in assay [2] was less than 30%.

With `C=C[C@H]1[C@H](O[C@@H]2O[C@H](CO)[C@@H](O)[C@H](O)[C@H]2O)OC=C(C(=O)OC)[C@H]1/C=C/CC(=O)OC`, the result in the assay on BGC-823, with KETR3, in the assay on Bel-7402, with HCT-8, in the assay with A549 and in the assay with MCF7 was inactive. Moreover, the inhibition entry in assay [1] was “inactive”. In assay [2], the inhibition at 10 µM was less than 30%.
